Data from DBAASP.
Converted amounts (≈) assume the structure as drawn. Each block holds one compound with its values, some of them ahead of it.

Legend:
Experiment in all cases: ≥ marks a high value that may be exact or a test limit, other limits are often not marked, values filed in µg/mL are converted to µM
[1] = system: Bacillus licheniformis X39
[2] = system: Candida albicans ATCC 2002
[3] = system: Psychrobacter faecalis X29
[4] = system: Rhodococcus rhodochrous X15
[5] = system: Staphylococcus aureus ATCC 25923
[6] = system: Staphylococcus carnosus KHS
[7] = system: Bacillus subtilis ATCC 6633
[8] = system: Escherichia coli ATCC 25922
[9] = system: Klebsiella pneumoniae ATCC 10031
[10] = system: Micrococcus luteus ATCC 10240
[11] = system: Pseudomonas aeruginosa ATCC 27853
[12] = system: Salmonella enterica subsp. enterica serovar Typhimurium ATCC 14028
[13] = system: Shigella dysenteriae ATCC 9752
[14] = system: Staphylococcus aureus ATCC 6538P
[15] = system: Staphylococcus aureus TK784
[16] = system: Staphylococcus epidermidis ATCC 12228
[17] = system: Acinetobacter baumannii ATCC 19606
[18] = system: Bordetella bronchiseptica CUN 11844-99
[19] = system: Pseudomonas aeruginosa CUN 4158-02
[20] = system: Staphylococcus aureus ATCC 43300
[21] = system: Staphylococcus aureus CUN 3792-99
[22] = system: Stenotrophomonas maltophilia CUN 3998-00
Bacillus subtilis 168 = system: Bacillus subtilis 168
[23] = system: Candida albicans F7-39/IDE99
Escherichia coli B = system: Escherichia coli B
[24] = system: Micrococcus luteus CCM 144
Pseudomonas aeruginosa = system: Pseudomonas aeruginosa
Staphylococcus aureus = system: Staphylococcus aureus
[25] = system: Aeromonas salmonicida NCIMB 1102
[26] = system: Bacillus subtilis IAM 1026
[27] = system: Escherichia coli JCM 1649
[28] = system: Photobacterium damselae subsp. piscicida Sp 9587
Salmonella typhimurium = system: Salmonella typhimurium
[29] = system: Shewanella putrefaciens IAM 1509
[30] = system: Staphylococcus aureus IAM 1011
[31] = system: Vibrio anguillarum NCIMB 829
[32] = system: Vibrio parahaemolyticus Vp+1
[33] = system: Candida albicans ATCC 90028
[34] = system: Enterobacter cloacae NHTCC 53001
[35] = system: Klebsiella pneumoniae KK3 9904
[36] = system: Pseudomonas aeruginosa 77319
[37] = system: Pseudomonas aeruginosa 77733
[38] = system: Pseudomonas aeruginosa 77905
[39] = system: Pseudomonas aeruginosa 78073
[40] = system: Pseudomonas aeruginosa 78078
[41] = system: Pseudomonas aeruginosa 78327
[42] = system: Pseudomonas aeruginosa 78887
[43] = system: Pseudomonas aeruginosa 78888
[44] = system: Pseudomonas aeruginosa 78905
[45] = system: Pseudomonas aeruginosa 87104
[46] = system: Staphylococcus aureus NCTC 8325

SMILES: CC(C)C[C@H](NC(=O)[C@H](CCCCN)NC(=O)[C@H](CCCCN)NC(=O)[C@H](CC(C)C)NC(=O)[C@H](CC(C)C)NC(=O)[C@H](CCCCN)NC(=O)[C@H](CCCCN)NC(=O)[C@H](CC(C)C)NC(=O)[C@H](Cc1c[nH]c2ccccc12)NC(=O)[C@H](CCCCN)NC(=O)[C@@H](N)CC(C)C)C(N)=O [LKWLKKLLKKL]
MIC [7]: 1.42 µM (≈ 2 µg/mL)
MIC [8]: 2.84 µM (≈ 4 µg/mL)
MIC [9]: 1.42 µM (≈ 2 µg/mL)
MIC [10]: 2.84 µM (≈ 4 µg/mL)
MIC [11]: 5.67 µM (≈ 7.99 µg/mL)
MIC [12]: 2.84 µM (≈ 4 µg/mL)
MIC [13]: 1.42 µM (≈ 2 µg/mL)
MIC [14]: 1.42 µM (≈ 2 µg/mL)
MIC [15]: 5.67 µM (≈ 7.99 µg/mL)
MIC [16]: 2.84 µM (≈ 4 µg/mL)

SMILES: CC(C)C[C@H](NC(=O)[C@H](CCCN=C(N)N)NC(=O)[C@H](CCCN=C(N)N)NC(=O)[C@H](Cc1ccccc1)NC(=O)[C@H](CCCCN)NC(=O)[C@H](CCCCN)NC(=O)[C@H](CS)NC(=O)CN)C(=O)N[C@@H](CCCCN)C(=O)N[C@@H](Cc1c[nH]c2ccccc12)C(=O)N[C@@H](CCCCN)C(=O)N[C@@H](Cc1ccc(O)cc1)C(=O)N[C@@H](CCCCN)C(=O)NCC(=O)N[C@@H](CCCCN)C(=O)N[C@@H](Cc1ccccc1)C(=O)N[C@@H](Cc1c[nH]c2ccccc12)C(=O)N[C@@H](Cc1ccccc1)C(=O)N[C@@H](Cc1c[nH]c2ccccc12)C(=O)N[C@@H](CS)C(=O)NCC(N)=O [GCKKFRRLKWKYKGKFWFWCG]
MIC [17]: 23.2 µM (≈ 64 µg/mL)
MIC [18]: 1.45 µM (≈ 4 µg/mL)
MIC [8]: 23.2 µM (≈ 64 µg/mL)
MIC [11]: 93 µM (≈ 256 µg/mL)
MIC [19]: ≥ 93 µM
MIC [5]: 11.6 µM (≈ 32 µg/mL)
MIC [20]: 23.2 µM (≈ 64 µg/mL)
MIC [21]: ≥ 372 µM
MIC [22]: ≥ 186 µM

SMILES: CC[C@H](C)[C@H](N)C(=O)NCC(=O)NCC(=O)N[C@H](C(=O)N[C@H](C(=O)N[C@@H](CO)C(=O)N[C@@H](Cc1ccccc1)C(=O)N[C@@H](Cc1ccccc1)C(=O)N[C@@H](CCCCN)C(=O)N[C@@H](CCCN=C(N)N)C(=O)N[C@@H](CC(C)C)C(=O)N[C@@H](Cc1ccccc1)C(=O)O)[C@@H](C)CC)[C@@H](C)CC [IGGIISFFKRLF]
MIC [25]: 17.9 µM (≈ 25 µg/mL)
MIC [26]: 4.47 µM (≈ 6.25 µg/mL)
MIC [27]: 8.94 µM (≈ 12.5 µg/mL)
MIC [28]: 4.47 µM (≈ 6.25 µg/mL)
MIC (Salmonella typhimurium): 8.94 µM (≈ 12.5 µg/mL)
MIC [29]: 2.24 µM (≈ 3.13 µg/mL)
MIC [30]: 4.47 µM (≈ 6.25 µg/mL)
MIC [31]: 4.47 µM (≈ 6.25 µg/mL)
MIC [32]: 8.94 µM (≈ 12.5 µg/mL)

SMILES: CC[C@H](C)[C@H](NC(=O)[C@H](Cc1cnc[nH]1)NC(=O)[C@H](CCCCN)NC(=O)CNC(=O)[C@H](C)NC(=O)[C@@H](NC(=O)[C@H](CCCCN)NC(=O)[C@H](CC(C)C)NC(=O)[C@@H](NC(=O)CNC(=O)[C@H](CCCCN)NC(=O)[C@H](Cc1ccccc1)NC(=O)[C@H](CC(C)C)NC(=O)[C@H](CO)NC(=O)[C@H](CCSC)NC(=O)[C@H](CC(C)C)NC(=O)CN)C(C)C)[C@@H](C)O)C(=O)N[C@@H](Cc1ccccc1)C(=O)N[C@@H](CCCCN)C(=O)N[C@@H](CC(N)=O)C(=O)N[C@H](C(=O)NCC(=O)NCC(=O)N[C@@H](CO)C(=O)N[C@@H](CC(C)C)C(=O)N[C@@H](CC(C)C)C(=O)N[C@@H](CC(=O)O)C(=O)N[C@@H](CCC(N)=O)C(=O)N[C@@H](C)C(=O)N[C@@H](CCCCN)C(=O)N[C@H]1CSSC[C@@H](C(=O)O)NC(=O)[C@H](CCC(=O)O)NC(=O)CNC(=O)[C@H]([C@@H](C)O)NC(=O)[C@H]([C@@H](C)CC)NC(=O)[C@H](CCCCN)NC1=O)C(C)C [GLMSLFKGVLKTAGKHIFKNVGGSLLDQAKCKITGEC]
MIC [33]: ≥ 100 µM
MIC [34]: 6 µM (≈ 23.4 µg/mL)
MIC [8]: 6 µM (≈ 23.4 µg/mL)
MIC [35]: 6 µM (≈ 23.4 µg/mL)
MIC [36]: 12 µM (≈ 46.7 µg/mL)
MIC [37]: 12 µM (≈ 46.7 µg/mL)
MIC [38]: 6 µM (≈ 23.4 µg/mL)
MIC [39]: 6 µM (≈ 23.4 µg/mL)
MIC [40]: 12 µM (≈ 46.7 µg/mL)
MIC [41]: 6 µM (≈ 23.4 µg/mL)
MIC [42]: 6 µM (≈ 23.4 µg/mL)
MIC [43]: 12 µM (≈ 46.7 µg/mL)
MIC [44]: 12 µM (≈ 46.7 µg/mL)
MIC [45]: 6 µM (≈ 23.4 µg/mL)
MIC [11]: 3 µM (≈ 11.7 µg/mL)
MIC [46]: 25 µM (≈ 97.3 µg/mL)

Next, values leading:

MIC [1]: 19 µM (≈ 30 µg/mL)
MIC [2]: 9.5 µM (≈ 15 µg/mL)
MIC [3]: ≥ 37.5 µM
MIC [4]: 2.4 µM (≈ 3.79 µg/mL)
MIC [5]: 4.8 µM (≈ 7.58 µg/mL)
MIC [6]: 19 µM (≈ 30 µg/mL)
SMILES: CC[C@H](C)[C@H](NC(=O)[C@H](CCCCN)NC(=O)[C@H](CCCCN)NC(=O)[C@H](C)NC(=O)[C@H](CC(C)C)NC(=O)[C@H](CC(N)=O)NC(=O)[C@@H](NC(=O)[C@@H](NC(=O)[C@@H](NC(=O)[C@H](CC(N)=O)NC(=O)[C@H](CC(C)C)NC(=O)[C@@H](NC(=O)[C@@H](N)CC(N)=O)[C@@H](C)CC)[C@@H](C)O)[C@@H](C)CC)[C@@H](C)CC)C(=O)N[C@@H](CC(C)C)C(N)=O [NILNTIINLAKKIL]

MIC (Bacillus subtilis 168): 5.8 µM (≈ 8.23 µg/mL)
MIC [23]: 9.8 µM (≈ 13.9 µg/mL)
MIC (Escherichia coli B): 17.1 µM (≈ 24.3 µg/mL)
MIC [24]: 9 µM (≈ 12.8 µg/mL)
MIC (Pseudomonas aeruginosa): 83.3 µM (≈ 118 µg/mL)
MIC (Staphylococcus aureus): 100 µM (≈ 142 µg/mL)
SMILES: CC[C@H](C)[C@H](NC(=O)[C@H](C)NC(=O)CNC(=O)[C@H](Cc1c[nH]c2ccccc12)NC(=O)[C@H](CC(N)=O)NC(=O)[C@@H](N)CCCCN)C(=O)N[C@@H](CC(C)C)C(=O)N[C@@H](CCCCN)C(=O)N[C@@H](Cc1cnc[nH]1)C(=O)N[C@H](C(=O)N[C@H](C(=O)N[C@@H](CCCCN)C(N)=O)[C@@H](C)CC)[C@@H](C)CC [KNWGAILKHIIK]
